In patent US20230414654A1, “METHODS OF TREATING COPPER METABOLISM-ASSOCIATED DISEASES OR DISORDERS” (Alexion Pharmaceuticals, Inc., priority 2020, published 2023):
Like-named read-outs stand apart in the source and are kept apart here. Marks after values point to notes of the source that are not given here.

Key:
[1] = Mobilization of copper from tissue (Studies 106, 201, 203); conditions: Study 106, Study 201 (BC-TTM); Study 203 (SoC)
[2] = cited from earlier work
[3] = system: healthy participants
Experimental: Twenty-four participants were enrolled (12 Japanese and 12 non-Japanese). […] Participants were followed 10 days after dosing within each Dosing Period, and a minimum of 14 days (+2 days) separated the dosing periods. PK and PD concentrations were measured over the next several hours for the first day and once daily for the next 9 days. Therefore, Study 106 permits examination of PK and PD profile changes within hours after drug administration.

[4] = system: participants with WD; conditions: for participants considered successfully treated (NCC/NCCcorrected primary endpoint): by Week 24; for participants considered successful (primary endpoint): last assessment of Extension Period
Experimental: This study was conducted in US and European sites. […] A total of 28 participants were enrolled and treated (10 in Cohort 1 [treatment experienced] and 18 in Cohort 2 [treatment naïve or minimally treated]). One participant was enrolled in Cohort 2 but not treated.
NCC levels within or above the normal reference range at enrollment were required. […] Dosing was individualized, guided by NCC levels (adjusted for molybdenum plasma concentration) and safety data. The primary efficacy endpoint was related to the proportion of successful participants, i.e., the proportion of participants who achieved plasma “free” copper control or improvement from baseline.
Due to small sample size and data variability, the median values for the weighted averages of the doses will be cited throughout.
The primary endpoint in study 201 was the change in NCC/NCCcorrected from baseline to Week 24.
In Study 201, 12-hour dense PK/PD samples for plasma total molybdenum and copper were collected on Day 1, Week 12, and Week 24. Plasma samples for assessing “free” copper were also collected at 0, 4, and 8 hours during those visits and assayed for LBC concentrations. For the purpose of comparison across Studies 106 and 201, FIG. 3 has super-imposed LBC/total copper ratios-time profiles within the 12-hour time window after dosing from both studies.

[5] = in vivo; cited from earlier work

CC(C)(S)[C@@H](N)C(=O)O [Penicillamine, (2S)-2-amino-3-methyl-3-sulfanylbutanoic acid]
Mobilization of Copper from Tissue [1]: No (Study 203)

Bis-choline tetrathiomolybdate [BC-TTM]
Mobilization of Copper from Tissue [1]: Yes (Study 106; | Cu-Binding Selectivity [2]: Cu^+ and Cu^2+* | time of maximum plasma total copper concentration post dose ([3]; 15 mg or 60 mg single dose): 8 to 12 h | maximum median increase of plasma total copper from baseline ([3]; 8-12 hours post dose): 26-34% | median plasma LBC as % of pre-dose baseline concentration ([3]; 12-24 hours post dose, combined ethnicity and dose data): 80-90% | median plasma LBC nadir as % of pre-dose baseline concentration ([3]; 3 hours post dose, combined ethnicity and dose data): 50-70% | percentage of plasma LBC relative to plasma total copper (AUEC) ([3]; after administration, all participants, both ethnicities and doses pooled): 7% | time at which median plasma LBC returned to baseline ([3]; after dose): 10 days | maximum individual plasma LBC concentration ([3]; after single 15 mg dose): 2.79 µM | maximum individual plasma total copper concentration ([3]; after single 15 mg dose): 23.0 µM | maximum individual plasma LBC concentration ([3]; after single 60 mg dose): 2.93 µM | maximum individual plasma total copper concentration ([3]; after single 60 mg dose): 21.7 µM | dose proportionality of plasma total molybdenum Cmax and AUC ([3]; human, in vivo): less than dose-proportionally | time to maximum plasma molybdenum (Tmax) ([3]; human, in vivo): 5 h | delay of maximum plasma total copper after maximum plasma total molybdenum ([3]; in vivo): 3 to 7 h | plasma molybdenum anticipated to be in the form of TPCs ([3]; in vivo): approximately 96% | time at which total copper concentrations had returned to predose baseline ([3]; post dose): 240 h | drop of LTC Ratio (LBC/total copper) from baseline ([4]; Day 1, 4 hours post dose, weighted average dose 30 mg): ~30% | nadir drop of LTC Ratio compared to Day 1 pre-dose baseline ([4]; Week 24, 4 hours post-dose, weighted average dose 35.8 mg): ~50% | reduction of mean serum non-ceruloplasmin-bound Cu (NCC) ([4]; Week 24 compared with baseline, 28 patients with WD, monotherapy): 72% | reduction of pre-dose LTC Ratio compared to Day 1 pre-dose baseline ([4]; Week 24 pre-dose, weighted average dose 35.8 mg): ~30% | participants considered successfully treated (NCC/NCCcorrected primary endpoint) ([4]; Cohort 1 (treatment experienced)): 90.0% | participants considered successfully treated (NCC/NCCcorrected primary endpoint) ([4]; Cohort 2 (treatment naïve or minimally treated)): 83.3% | paradoxical neurological worsening upon treatment initiation ([4]; in vivo): No paradoxical neurological worsening was observed | patients with reversible liver function test elevations ([4]; in vivo): 39% | tolerability ([4]; in vivo): generally well-tolerated | participants considered successful (primary endpoint) ([4]; Cohort 1): 90.0% | participants considered successful (primary endpoint) ([4]; Cohort 2): 83.3% | participants considered successful (primary endpoint) ([4]; all participants): 85.7% | Route of Copper Elimination [5]: Biliary/fecal

NCCNCCNCCN [Trientine, N-[2-(2-aminoethylamino)ethyl]ethane-1,2-diamine]
Mobilization of Copper from Tissue [1]: No | Cu-Binding Selectivity [2]: Cu^2+, and other

[Zn] [Zinc, zinc]
Mobilization of Copper from Tissue [1]: No (Study 203) | Route of Copper Elimination [5]: Non-absorbed
